From EP0643964A2 (priority 1993, dated 1995)
“And” between values parts separate entries of the source, which are not always exact repeats. Identical values can stand only once.

Tests used:
[1] = system: Cryptococcus neoformans; assay: Cryptococcoses in experimentally infected mice; format: in vivo, Swiss mice; conditions: 0.1 ml 0.2% lidocaine i.p. twice a day
Protocol: Animals: 5-7 month old female Swiss mice were used. Experimental schedule: mice received by intraperitoneal route 0.5 ml of a suspension of 10⁷ Cryptococcus neoformans grown in Sabureaud medium.
Two animals of each group (experimental and control groups) were sacrificed at 2, 5 and 10 days post-infection and samples of liver, pancreas, brain, spleen, lung, kidney and bowel were obtained for microscopic examination.

[2] = system: M3 tumor; assay: M3 transplanted mice, tumor area (lidocaine and epidoxorrubicine); format: in vivo
[3] = system: patients with acute hemorraghic diarrhea; assay: Intravenous treatment of patients with acute hemorrhagic diarrhea; format: in vivo, human
Protocol: Rectoscopies were performed in all patients immediately before treatment, 2 and 7 days later. Two (2) of the patients accepted to be biopsed at the moment of the first and second rectoscopies.

[4] = system: herpes zoster; assay: Herpes zoster infection in patients; format: in vivo, human
From the text: PATIENT A: who presented a grade II vesical transitional carcinoma that was endoscopically resected. 60 days after resection they presented their first herpetic episode in chest, of 10 days of evolution. 175 days later, a second episode was presented, beginning with hyper and parastesy in the affected area and sudden appearance of vesicles.
PATIENT B: without any apparent disease. 20 and 12 months before they presented two episodes of herpes zoster in the right submammary area, of high intensity, with exquisite pain that made impossible contact with clothes, each episode lasting 3 weeks. At the present time, the patient presented their third episode, preceded by fever (during 48 hours), with crusted vesicles, some of them impetiginized.
PATIENT C: with a breast cancer, under chemo and hormone therapy. After each chemotherapy schedule received, they developed an herpetic episode in the left leg.

[5] = system: herpes simplex; assay: Evolution of recidivant periorificial herpes simplex infection in volunteers; format: in vivo, human
Protocol: Patients were divided into 3 groups: one of the groups (n=4) received acyclovir by oral route and topical applications of the same drug. […] Experiments began with the appearance of the next episode of herpes, just in the moment when vesicles appeared.
All these patients were controlled monthly during the following 4 months. During this time, group A patients presented episodes with a pattern similar to that they had before the experiment was performed. […] The remaining two presented an episode of herpes 2.8 and 3.3 months later.

[6] = system: P815 H-2^d mastocytoma cells; assay: In vitro cell growth, P815 seeded petri dishes (Trypan blue count); format: cell-based
Protocol: (§1) EL4 h-2^b murine T-Lymphoma (2x10⁶ cells) and P815 H-2^d mastocytoma cells (2x10⁶ cells) (kindly provided by Prof. Gideon Berke at the Weizmann Institute of Sciences, Rehovot, Israel) suspended in 2 ml RPMI-HEPES supplemented with […] and 10% fetal calf serum (FCS) were seeded in every one of 10 petri dishes for each of five groups for the EL4 cells and two groups for the P815 cells. […] Group E dishes were co-cultivated with 0.1 ml RPMI-HEPES alone.
(§2) Petri dishes were incubated for 72 hours at 37°C in 5% CO₂ atmosphere. The cells harvested from the petri dishes were then centrifuged, diluted with 1% Trypan blue and counted on a Neubauer chamber.

[7] = system: EL4 h-2^b murine T-Lymphoma; assay: In vitro cell growth, EL4 seeded petri dishes (Trypan blue count); format: cell-based; conditions: for Cells Alive ± STD: 72 hours
Protocol: as §1, §2

[8] = system: P815 H-^d mastocytoma cells; assay: Mastocytoma transplanted BALB/c mice, peritoneal cell count; format: in vivo; conditions: for Cellular count ± STD / I/C: Percentual increment over control growth: Group A
Protocol: Two groups of BALB/c mice were injected with 15X10⁶ P815 H-^d mastocytoma cells by intraperitoneal route. […] The other group (B) was treated with saline.
On the third day assay and for the next three days, 5 mice per group were sacrificed. The peritoneal cavity was washed with phosphate buffered saline (PBS) and the ascitic fluid aspirated with syringe and centrifuged for 10 minutes at 500 Xg. The supernatant was then discarded and the cells diluted in 1% Trypan blue were counted on a Neubauer chamber. The cell count for each group can be observed in Table 3.

[9] = system: HIV (RETROVIRUS); assay: Evolution of HIV infected patients (CD4+ counts); format: in vivo, human; conditions: for number of CD4+ cells in blood: individual patients 1-4
From the text: One group experiment consisted in 6 volunteer patients males and females aged between 22 and 35. […] Patient 5 and patient 6, just received saline by same route and frequency as treated patients.
The evolution of the disease in the analyzed patients was done by counting the number of CD4+ cells/mm³ blood and the CD4/CD8 ratio. Blood samples were collected every 15 days.
Treatment of patients started after the fourth sample extraction.

[10] = herpes simplex episode, ACV oral+topical, lidocaine 5 ml 2% i.v. twice a day 2 days
[11] = Mus musculus, 72 h, read-out: I/C: Percentual increment over control growth

Structure (SMILES): CCN(CC)CC(=O)Nc1c(C)cccc1C [lidocaine]
- Microscopic examination of organs ([1]; 48 hours post-infection): only a generalized vascular congestion
- Microscopic examination of organs ([1]; 5 days post-infection): discrete mononuclear cell infiltrate in liver parenchyma and swelling of pancreatic tissue, with absence of inflammatory cells
- Microscopic examination of organs ([1]; day 10 pi): scarce granulomas in hepatic parenchyma
- Area (tumor) ([2]; day 7 p-t (day 0), lidocaine 0.1 ml 0.05% every 7 days, epidoxorrubicine 0.125 ml 0.2% every 7 days, combination: lidocaine 2 days after epidoxorrubicine): 0.46
- I/Ø: Percentual increment over tumor in day 0 (day 7 p-t) ([2]; day 10 p-t, saline control 103.47): 18.75%
- Area (tumor) ([2]; day 12 p-t, regimens as Table 5 footnotes, saline control 1.56): 0.70
- I/Ø: Percentual increment over tumor in day 0 (day 7 p-t) ([2]; day 12 p-t, saline control 245.61): 51.56%
- Area (tumor) ([2]; day 14 p-t, regimens as Table 5 footnotes, saline control 2.06): 0.96
- I/Ø: Percentual increment over tumor in day 0 (day 7 p-t) ([2]; day 14 p-t, saline control 357.57): 107.81%
- Area (tumor) ([2]; day 16 p-t, regimens as Table 5 footnotes, saline control 2.78): 1.11
- I/Ø: Percentual increment over tumor in day 0 (day 7 p-t) ([2]; day 16 p-t, saline control 516.74): 142.19%
- Area (tumor) ([2]; day 18 p-t, regimens as Table 5 footnotes, saline control 3.61): 1.38
- Area (tumor) ([2]; day 21 p-t, regimens as Table 5 footnotes, saline control 4.61): 1.93
- Area (tumor) ([2]; day 23 p-t, regimens as Table 5 footnotes, saline control 5.49): 2.90
- Area (tumor) ([2]; day 25 p-t, regimens as Table 5 footnotes, saline control 6.24): 3.57
- I/Ø: Percentual increment over tumor in day 0 (day 7 p-t) ([2]; day 25 p-t, saline control 1286.33): 676.56%
- Symptomatology ([3]; 4 patients, 5 ml 2% solution i.v. twice a day for 2 days, after 48 hours of treatment): abolishment of symptomatology
- Microscopic examination of mucosa ([3]; second biopsy (2 patients)): Slight chronic inflammatory process with indemnity of epithelium
- Rectoscopy ([3]; second rectoscopy, 2 days after start of treatment): congestive and edematous mucosa, without hemorrhages and erosions
- Rectoscopy ([3]; third rectoscopy, 7 days later): normal mucosa
- Evolution of herpetic lesions ([4]; PATIENT C, breast cancer under chemo and hormone therapy): residual hyperesthesia persisted
- time to healing (crusts detached / all vesicles healed) ([4]; individual patients (A, B)): ≤ 7 day post-treatment and 10 day post-treatment
- time to disappearance of pain ([4]; individual patients (A, B), i.v. twice a day 2 days): ≤ 5 days and 5 days
- Pain ([5]; Group B, by 48 hours after treatment was begun): no pain existed
- Vesicle evolution ([5]; Group B, lidocaine i.v. at appearance of vesicles): Neither rupture of vesicles nor crust formation was found
- Duration of lesions [5, 10]: 4.5 days
- Duration of symptoms [5, 10]: 2 days
- FIRST EPISODE AFTER TREATMENT ([5]; individual patients, followed monthly for 4 months): 84 days and 94 days
- patients who did not present another episode of the disease ([5]; patients who received lidocaine (groups B and C), 4 months follow-up): 4 of 6
- time to next episode of herpes ([5]; the remaining two lidocaine patients): 2.8 months and 3.3 months
- Alive Cells ± STD ([6]; Group A, 0.1 ml 0.005% lidocaine, 72 hours, control 4.66E+06): 3.77E+06 ± 0.11 millions of cells
- Dead cells ([6]; Group A, 0.1 ml 0.005% lidocaine, control 2.33E+06): 1.96E+06
- inhibition at 0.005 % ([6]; Mus musculus, P815, 72 h, read-out: I/C: Percentual increment over control growth): 19.1%
- Cells Alive ± STD ([7]; Group A, 0.1 ml 2% lidocaine in 2 ml, 2 millions seeded, control 5.92E+06): 5.16E+06 ± 0.04 millions of cells
- Dead cells ([7]; Group A, 2% lidocaine, control 2.08E+06): 2.78E+06
- Cells Alive ± STD ([7]; Group B, 0.1 ml 0.5% lidocaine): 5.90E+06 ± 0.03 millions of cells
- Dead cells ([7]; Group B, 0.5% lidocaine): 1.64E+06
- Dead cells ([7]; Group C, 0.05% lidocaine): 1.52E+06
- Cells Alive ± STD ([7]; Group C, 0.1 ml 0.05% lidocaine): 5.46E+06 ± 0.01 millions of cells
- Dead cells ([7]; Group D, 0.005% lidocaine): 1.12E+06
- Cells Alive ± STD ([7]; Group D, 0.1 ml 0.005% lidocaine): 3.48E+06 ± 0.02 millions of cells
- inhibition at 0.005 % [7, 11]: 41.2%
- inhibition at 0.05 % [7, 11]: 7.77%
- inhibition at 0.5 % [7, 11]: 0.34%
- inhibition at 2 % [7, 11]: 12.8%
- cytotoxicity at 2 % ([7]; Mus musculus, EL4, 72 h, read-out: amount of dead cells): 35%
- amount of dead cells ([7]; groups B to E (0.5%, 0.05%, 0.005% lidocaine and control), 4320 min): 20-25%
- Cellular count ± STD ([8]; 0.1 ml 0.5% lidocaine 24 h after transplant, 48 Hs p-t, control 5.30E+07): 2.85E+07 ± 0.78 millions of cells
- I/C: Percentual increment over control growth ([8]; 48 Hs p-t): -46.18%
- I/C: Percentual increment over control growth ([8]; 72 Hs p-t): -37.11%
- Cellular count ± STD ([8]; 72 Hs p-t, control 1.59E+08): 1.00E+08 ± 3.38 millions of cells
- I/C: Percentual increment over control growth ([8]; 96 Hs p-t): 27.15%
- reduction in the growth rate ([8]; first 24 hours of lidocaine treatment, decreasing 10% per day afterwards): ~50%
- CD4 counting ([9]; all the treated patients, controls decreased): increase or no decrease
- number of CD4+ cells in blood ([9]; sample 1 (every 2 weeks), before treatment): 480 cells/mm³ and 294 cells/mm³ and 230 cells/mm³ and 500 cells/mm³
- number of CD4+ cells in blood ([9]; sample 2, before treatment): 475 cells/mm³ and 294 cells/mm³ and 238 cells/mm³ and 496 cells/mm³
- number of CD4+ cells in blood ([9]; sample 3, before treatment): 475 cells/mm³ and 280 cells/mm³ and 235 cells/mm³ and 496 cells/mm³
- number of CD4+ cells in blood ([9]; sample 4, last before treatment): 480 cells/mm³ and 270 cells/mm³ and 234 cells/mm³ and 485 cells/mm³
